Data published in PubChem BioAssay AID248 (DTP/NCI, 2004).
Several values for one entry are separate records, joined by “and”; a condition that tells them apart may be missing. Equal entries are not always repeated. Toxic doses and inconclusive results are not listed. Cut-off read from the data, not from the text of the source: active = T/C of 150% or more; inactive = T/C below 125%.

Tested on: L1210 leukemia ip in BDF1 mice, survival T/C
Test: NCI In Vivo Anticancer Drug Screen. Data for tumor model L1210 Leukemia (intraperitoneal) in B6D2F1 (BDF1) mice
Settings: endpoint: mean survival time, higher = longer survival
In short: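 Value reflects the ratio of survival in compound-treated mice to survival in vehicle-treated controls, with both groups carrying the same transplanted tumor.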

[1] = dose: 100.0 mg/kg/injection, schedule: Q01DX001 (ip), vehicle: saline
[2] = dose: 200.0 mg/kg/injection, schedule: Q01DX001 (ip), vehicle: saline
[3] = dose: 400.0 mg/kg/injection, schedule: Q01DX001 (ip), vehicle: saline
[4] = dose: 50.0 mg/kg/injection, schedule: Q01DX001 (ip), vehicle: carboxymethylcellulose (CMC)
[5] = dose: 100.0 mg/kg/injection, schedule: Q01DX001 (ip), vehicle: carboxymethylcellulose (CMC)
[6] = dose: 200.0 mg/kg/injection, schedule: Q01DX001 (ip), vehicle: carboxymethylcellulose (CMC)
[7] = dose: 50.0 mg/kg/injection, schedule: Q01DX001 (ip), vehicle: saline
[8] = dose: 400.0 mg/kg/injection, schedule: Q01DX001 (ip), vehicle: carboxymethylcellulose (CMC)
[9] = dose: 100.0 mg/kg/injection, schedule: Q04DX003 (ip), vehicle: saline with Tween-80
[10] = dose: 200.0 mg/kg/injection, schedule: Q04DX003 (ip), vehicle: saline with Tween-80
[11] = dose: 100.0 mg/kg/injection, schedule: Q01DX001 (ip), vehicle: saline with Tween-80
[12] = dose: 200.0 mg/kg/injection, schedule: Q01DX001 (ip), vehicle: saline with Tween-80
[13] = dose: 400.0 mg/kg/injection, schedule: Q01DX001 (ip), vehicle: saline with Tween-80

Measured: T/C

CCCCCCCCCCCCCCCCCCCC
inactive: dose: 25.0 mg/kg/injection, schedule: Q01DX009 (ip), vehicle: other 109 % of control | dose: 50.0 mg/kg/injection, schedule: Q01DX009 (ip), vehicle: other 101 % of control | dose: 100.0 mg/kg/injection, schedule: Q01DX009 (ip), vehicle: other 93 % of control

N#CC(=N)N1CCCCC1
inactive: dose: 100.0 mg/kg/injection, schedule: Q04DX003 (ip), vehicle: saline 98 % of control | dose: 200.0 mg/kg/injection, schedule: Q04DX003 (ip), vehicle: saline 112 % of control | dose: 400.0 mg/kg/injection, schedule: Q04DX003 (ip), vehicle: saline 109 % of control

Nc1ccc(N=Nc2ccc(S(=O)(=O)Nc3ccccn3)cc2)c(N)n1
inactive: [1] 96 % of control | [2] 102 % of control | [3] 105 % of control

COc1c2c(c3c(c1OC)c(=O)c1ccccc1n3C)OCO2
inactive: [4] 96 % of control | [5] 93 % of control | [6] 107 % of control | dose: 300.0 mg/kg/injection, schedule: Q01DX001 (ip), vehicle: carboxymethylcellulose (CMC) 102 % of control

CCSc1ncnc2nc[nH]c12
inactive: dose: 75.0 mg/kg/injection, schedule: Q01DX001 (ip), vehicle: acetone 105 % of control | dose: 150.0 mg/kg/injection, schedule: Q01DX001 (ip), vehicle: acetone 105 % of control | dose: 300.0 mg/kg/injection, schedule: Q01DX001 (ip), vehicle: acetone 105 % of control

CC(=O)/C(=C(/C)OB(F)F)C(C)C
inactive: [7] 102 % of control | [1] 104 % of control | [2] 102 % of control

CC1(c2ccc[n+](CC(=O)c3ccccc3)c2)OCCO1
inactive: dose: 75.0 mg/kg/injection, schedule: Q01DX001 (ip), vehicle: saline 104 % of control | dose: 150.0 mg/kg/injection, schedule: Q01DX001 (ip), vehicle: saline 105 % of control

CCOC(=O)CC(C(=O)O)=C(c1ccccc1)c1ccccc1
inactive: [4] 98 % of control | [5] 98 % of control | [6] 93 % of control | [8] 93 % of control

COc1cc2c(cc1OC)N(C(C)=O)Cc1cccn1C2
inactive: dose: 12.5 mg/kg/injection, schedule: Q04DX002 (ip), vehicle: Klucel (hydroxypropylcellulose) (HPC) 94 % of control | dose: 25.0 mg/kg/injection, schedule: Q04DX002 (ip), vehicle: Klucel (hydroxypropylcellulose) (HPC) 94 % of control | dose: 50.0 mg/kg/injection, schedule: Q04DX002 (ip), vehicle: Klucel (hydroxypropylcellulose) (HPC) 94 % of control

CCOC(=O)C(Cc1ccc(Cl)c(Cl)c1)(NC(C)=O)C(=O)OCC
inactive: dose: 50.0 mg/kg/injection, schedule: Q04DX003 (ip), vehicle: saline with Tween-80 102 % of control | [9] 94 % of control | [10] 96 % of control

CCCCCC1(C)OCC(CCl)O1 (stereo unspecified)
inactive: dose: 222.0 mg/kg/injection, schedule: Q01DX Z (ip), vehicle: saline 107 % of control | dose: 333.0 mg/kg/injection, schedule: Q01DX Z (ip), vehicle: saline 97 % of control | dose: 500.0 mg/kg/injection, schedule: Q01DX Z (ip), vehicle: saline 89 % of control

Nc1ncnc2c1cnn2Cc1ccc(Cl)cc1
inactive: dose: 50.0 mg/kg/injection, schedule: Q01DX009 (ip), vehicle: saline 100 % of control | [5] 98 % of control and 103 % of control | dose: 100.0 mg/kg/injection, schedule: Q01DX009 (ip), vehicle: saline 88 % of control | dose: 100.0 mg/kg/injection, schedule: Q04DX003 (ip), vehicle: carboxymethylcellulose (CMC) 97 % of control | [6] 93 % of control and 115 % of control | dose: 200.0 mg/kg/injection, schedule: Q04DX003 (ip), vehicle: carboxymethylcellulose (CMC) 95 % of control | [8] 96 % of control and 121 % of control

Cc1ccc(Nc2cc(Br)c(N)c3c2C(=O)c2ccccc2C3=O)cc1
inactive: [11] 103 % of control | dose: 100.0 mg/kg/injection, schedule: Q01DX009 (ip), vehicle: saline with Tween-80 93 % of control and 94 % of control | dose: 100.0 mg/kg/injection, schedule: Q04DX002 (ip), vehicle: saline with Tween-80 92 % of control | [9] 97 % of control | [12] 102 % of control | dose: 200.0 mg/kg/injection, schedule: Q01DX009 (ip), vehicle: saline with Tween-80 93 % of control and 94 % of control | dose: 200.0 mg/kg/injection, schedule: Q04DX002 (ip), vehicle: saline with Tween-80 86 % of control | [10] 95 % of control | [13] 91 % of control | dose: 400.0 mg/kg/injection, schedule: Q01DX009 (ip), vehicle: saline with Tween-80 96 % of control and 97 % of control | dose: 400.0 mg/kg/injection, schedule: Q04DX002 (ip), vehicle: saline with Tween-80 86 % of control | dose: 400.0 mg/kg/injection, schedule: Q04DX003 (ip), vehicle: saline with Tween-80 90 % of control

COc1c2c(c3ccccc3c1OC(C)=O)OC(C)(C)CC2
inactive: [11] 88 % of control | [12] 92 % of control | [13] 90 % of control

[O-][n+]1ccccc1CCO
inactive: dose: 100.0 mg/kg/injection, schedule: Q04DX002 (ip), vehicle: saline 98 % of control | dose: 200.0 mg/kg/injection, schedule: Q04DX002 (ip), vehicle: saline 106 % of control | dose: 400.0 mg/kg/injection, schedule: Q04DX002 (ip), vehicle: saline 92 % of control

ONc1ccccn1
inactive: [1] 95 % of control | [2] 95 % of control

NC(=S)N=Nc1ccc(O)cc1
inactive: [7] 103 % of control | [1] 100 % of control | [2] 100 % of control | [3] 109 % of control

COc1ccc(C(=O)c2cc(Br)ccc2O)cc1
inactive: [5] 98 % of control | [6] 100 % of control | [8] 98 % of control

O=S(=O)(CCO)CCS(=O)(=O)CCO
inactive: dose: 75.0 mg/kg/injection, schedule: Q01DX009 (ip), vehicle: carboxymethylcellulose (CMC) 92 % of control | dose: 150.0 mg/kg/injection, schedule: Q01DX009 (ip), vehicle: carboxymethylcellulose (CMC) 102 % of control | dose: 300.0 mg/kg/injection, schedule: Q01DX009 (ip), vehicle: carboxymethylcellulose (CMC) 92 % of control

COc1cc(C2=C3C(=O)OCC3Cc3ccccc32)ccc1OCc1ccccc1 (stereo unspecified)
inactive: [1] 97 % of control | [2] 95 % of control | [3] 98 % of control

CCCCOC(=S)SCC(=O)O
inactive: dose: 100.0 mg/kg/injection, schedule: Q04DX002 (ip), vehicle: other 103 % of control | dose: 200.0 mg/kg/injection, schedule: Q04DX002 (ip), vehicle: other 106 % of control | dose: 400.0 mg/kg/injection, schedule: Q04DX002 (ip), vehicle: other 94 % of control

CSC(N(C)c1ccccc1)=[N+](C)c1ccccc1
inactive: [1] 105 % of control

CSc1ccccc1C=Nc1ccccc1O
inactive: [11] 101 % of control | [12] 98 % of control | [13] 103 % of control

O=C(O)/C(=C\c1ccccc1[N+](=O)[O-])c1cccc(Cl)c1
inactive: dose: 100.0 mg/kg/injection, schedule: Q01DX009 (ip), vehicle: Klucel (hydroxypropylcellulose) (HPC) 90 % of control | dose: 200.0 mg/kg/injection, schedule: Q01DX009 (ip), vehicle: Klucel (hydroxypropylcellulose) (HPC) 95 % of control

CN(C)c1ccc(/C(=N\O)C(=O)O)cc1
inactive: [7] 107 % of control | [1] 105 % of control | [2] 100 % of control
